Laboratory results as given in PubChem BioAssay (NCI).
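In this assay, cells in 96-well plates receive the compound at five concentrations for 48 hours. Endpoints are linearly interpolated between the surrounding concentrations. The concentration for full growth arrest is given as TGI.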

Key:
Assay in all cases: NCI-60 cell line screen, 48 h
786-0 renal = system: 786-0 renal
A498 renal = system: A498 renal
A549 NSCLC = system: A549 NSCLC
ACHN renal = system: ACHN renal
CAKI-1 renal = system: CAKI-1 renal
CCRF-CEM leukemia = system: CCRF-CEM leukemia
COLO 205 colon = system: COLO 205 colon
DMS 114 small cell lung = system: DMS 114 small cell lung
DMS 273 small cell lung = system: DMS 273 small cell lung
EKVX NSCLC = system: EKVX NSCLC
HCC-2998 colon = system: HCC-2998 colon
HCT-116 colon = system: HCT-116 colon
HCT-15 colon = system: HCT-15 colon
HOP-18 NSCLC = system: HOP-18 NSCLC
HOP-62 NSCLC = system: HOP-62 NSCLC
HOP-92 NSCLC = system: HOP-92 NSCLC
HT29 colon = system: HT29 colon
IGROV1 ovarian = system: IGROV1 ovarian
K-562 leukemia = system: K-562 leukemia
KM12 colon = system: KM12 colon
KM20L2 colon = system: KM20L2 colon
LOX IMVI melanoma = system: LOX IMVI melanoma
M14 melanoma = system: M14 melanoma
M19-MEL melanoma = system: M19-MEL melanoma
MALME-3M melanoma = system: MALME-3M melanoma
NCI-H226 lung = system: NCI-H226 lung
NCI-H23 lung = system: NCI-H23 lung
NCI-H460 lung = system: NCI-H460 lung
OVCAR-3 ovarian = system: OVCAR-3 ovarian
OVCAR-4 ovarian = system: OVCAR-4 ovarian
OVCAR-5 ovarian = system: OVCAR-5 ovarian
OVCAR-8 ovarian = system: OVCAR-8 ovarian
RPMI-8226 leukemia = system: RPMI-8226 leukemia
SF-268 CNS = system: SF-268 CNS
SF-295 CNS = system: SF-295 CNS
SF-539 CNS = system: SF-539 CNS
SK-MEL-2 melanoma = system: SK-MEL-2 melanoma
SK-MEL-28 melanoma = system: SK-MEL-28 melanoma
SK-MEL-5 melanoma = system: SK-MEL-5 melanoma
SK-OV-3 ovarian = system: SK-OV-3 ovarian
SN12C renal = system: SN12C renal
SNB-19 CNS = system: SNB-19 CNS
SNB-75 CNS = system: SNB-75 CNS
SNB-78 CNS = system: SNB-78 CNS
SW-620 colon = system: SW-620 colon
TK-10 renal = system: TK-10 renal
U251 CNS = system: U251 CNS
UACC-257 melanoma = system: UACC-257 melanoma
UACC-62 melanoma = system: UACC-62 melanoma
UO-31 renal = system: UO-31 renal
XF 498 CNS = system: XF 498 CNS
DLD-1 colon = system: DLD-1 colon
LXFL 529 NSCLC = system: LXFL 529 NSCLC
MOLT-4 leukemia = system: MOLT-4 leukemia
NCI-H522 lung = system: NCI-H522 lung
RXF 393 renal = system: RXF 393 renal

CC(C)(C)C(=O)OCC1CCC(n2cnc3c(=O)[nH]c(N)nc32)O1 (stereo not drawn)
TGI (786-0 renal): > 100 µM
TGI (A498 renal): > 100 µM
TGI (A549 NSCLC): > 100 µM
TGI (ACHN renal): > 100 µM
TGI (CAKI-1 renal): > 100 µM
TGI (CCRF-CEM leukemia): > 100 µM
TGI (COLO 205 colon): > 100 µM
TGI (DMS 114 small cell lung): > 100 µM
TGI (DMS 273 small cell lung): > 100 µM
TGI (EKVX NSCLC): > 100 µM
TGI (HCC-2998 colon): > 100 µM
TGI (HCT-116 colon): > 100 µM
TGI (HCT-15 colon): > 100 µM
TGI (HOP-18 NSCLC): > 100 µM
TGI (HOP-62 NSCLC): > 100 µM
TGI (HOP-92 NSCLC): > 100 µM
TGI (HT29 colon): > 100 µM
TGI (IGROV1 ovarian): > 100 µM
TGI (K-562 leukemia): > 100 µM
TGI (KM12 colon): > 100 µM
TGI (KM20L2 colon): > 100 µM
TGI (LOX IMVI melanoma): > 100 µM
TGI (M14 melanoma): > 100 µM
TGI (M19-MEL melanoma): > 100 µM
TGI (MALME-3M melanoma): > 100 µM
TGI (NCI-H226 lung): > 100 µM
TGI (NCI-H23 lung): > 100 µM
TGI (NCI-H460 lung): > 100 µM
TGI (OVCAR-3 ovarian): > 100 µM
TGI (OVCAR-4 ovarian): > 100 µM
TGI (OVCAR-5 ovarian): > 100 µM
TGI (OVCAR-8 ovarian): > 100 µM
TGI (RPMI-8226 leukemia): > 100 µM
TGI (SF-268 CNS): > 100 µM
TGI (SF-295 CNS): > 100 µM
TGI (SF-539 CNS): > 100 µM
TGI (SK-MEL-2 melanoma): > 100 µM
TGI (SK-MEL-28 melanoma): > 100 µM
TGI (SK-MEL-5 melanoma): > 100 µM
TGI (SK-OV-3 ovarian): > 100 µM
TGI (SN12C renal): > 100 µM
TGI (SNB-19 CNS): > 100 µM
TGI (SNB-75 CNS): > 100 µM
TGI (SNB-78 CNS): > 100 µM
TGI (SW-620 colon): > 100 µM
TGI (TK-10 renal): > 100 µM
TGI (U251 CNS): > 100 µM
TGI (UACC-257 melanoma): > 100 µM
TGI (UACC-62 melanoma): > 100 µM
TGI (UO-31 renal): > 100 µM
TGI (XF 498 CNS): > 100 µM

Cc1c(C(=O)/C=C/c2ccccc2O)c(=O)n(-c2ccccc2)n1C
TGI (786-0 renal): 70 µM
TGI (A498 renal): 90 µM
TGI (A549 NSCLC): > 100 µM
TGI (ACHN renal): 45.2 µM
TGI (CAKI-1 renal): 73.8 µM
TGI (CCRF-CEM leukemia): 86.9 µM
TGI (COLO 205 colon): 70.8 µM
TGI (DLD-1 colon): 27.9 µM
TGI (DMS 114 small cell lung): > 100 µM
TGI (DMS 273 small cell lung): > 100 µM
TGI (EKVX NSCLC): > 100 µM
TGI (HCC-2998 colon): 29.5 µM
TGI (HCT-116 colon): 34.6 µM
TGI (HCT-15 colon): 60.5 µM
TGI (HOP-92 NSCLC): 64.6 µM
TGI (HT29 colon): > 100 µM
TGI (IGROV1 ovarian): > 100 µM
TGI (KM20L2 colon): > 100 µM
TGI (LOX IMVI melanoma): 45.9 µM
TGI (LXFL 529 NSCLC): 37.5 µM
TGI (M19-MEL melanoma): 74.6 µM
TGI (MALME-3M melanoma): 70.7 µM
TGI (MOLT-4 leukemia): 63.2 µM
TGI (NCI-H226 lung): 64.6 µM
TGI (NCI-H460 lung): 53.3 µM
TGI (NCI-H522 lung): 47.5 µM
TGI (OVCAR-3 ovarian): > 100 µM
TGI (OVCAR-5 ovarian): > 100 µM
TGI (OVCAR-8 ovarian): 40.7 µM
TGI (RXF 393 renal): 50.8 µM
TGI (SF-268 CNS): > 100 µM
TGI (SF-295 CNS): 54.9 µM
TGI (SF-539 CNS): 55.5 µM
TGI (SK-MEL-2 melanoma): 38.4 µM
TGI (SK-MEL-28 melanoma): > 100 µM
TGI (SK-MEL-5 melanoma): 28.6 µM
TGI (SK-OV-3 ovarian): > 100 µM
TGI (SN12C renal): 52.6 µM
TGI (SNB-19 CNS): > 100 µM
TGI (SNB-75 CNS): > 100 µM
TGI (SNB-78 CNS): > 100 µM
TGI (SW-620 colon): 35.5 µM
TGI (TK-10 renal): > 100 µM
TGI (U251 CNS): 35.9 µM
TGI (UACC-257 melanoma): 89.7 µM
TGI (UACC-62 melanoma): > 100 µM
TGI (XF 498 CNS): 46.3 µM
